Test results taken from US20260335278A1, “PHYTOCHEMICAL FORMULATIONS FOR TREATING STRESS AND ANXIETY” (GBS GLOBAL BIOPHARMA, INC., priority 2022, published 2026).
“Also recorded” adds a separate entry of the source.

Assays:
zebrafish larvae [1] = test: Baseline activity / baseline exposure (90 min continuous light), zebrafish larvae; assay type: in vivo; design: key to Baseline Exposure: +: statistically significant increase; −−: statistically significant decrease
Method: (§1) The validation process for the phytochemicals derived from Piper methysticum, other Piper plant family members, and non-Piper medicinal plants and fungi includes testing the selected phytochemical drug candidates as singles, doubles, and triples in two complementary zebrafish models of stress and anxiety. These two complementary assays are the Light/Dark Stress Response test that is illustrated in FIG. 5 (after the 90 min study of the effect of the compounds and mixtures on Baseline Activity) and the Thigmotaxis assay, as illustrated in FIG. 61A and FIG. 61B, which is also known as the wall flower effect, like the social anxiety of humans. Zebrafish larvae show a clear and distinct pattern of swimming in response to rapidly alternating light and dark conditions in the Light/Dark Response testing, which trigger a flight or fight response and darting behavior indicative of great stress and anxiety. The Light/Dark testing uses a control group to automatically track, using an automatic tracking device, the larval behavior in response to dark to light conditions. The thigmotaxis assay also uses automatic tracking and appropriate controls. In multiple embodiments additional Zebrafish larvae are given various concentrations of the selected phytochemicals from Table 1 for tracking Light/Dark Responses or Thigmotactic behavioral changes in the treated zebrafish larvae. Table 2A and Table 2B summarize the results from both assays when the individual phytochemicals are exposed to the: Baseline Activity (90 minutes in the light), Light/Dark Stress Response (5 min alternating pulses of dark and light for 30 min.), and Thigmotaxis Activity (% of time in the light center of the chamber (anxiety inducing) versus % of time near the dark (soothing) wall).
(§2) The present invention includes a process to discover new pharmaceutical medicines for the treatment of stress, anxiety and anxiety-related disorders in a human. The preclinical testing included the effects of these 14 individual phytochemicals and 300 ratio-controlled mixtures of these phytochemicals in assays measuring the behavioral stress response patterns of zebrafish larvae. Larval behavior is assessed with at least one functional assay of stress or anxiety following acute exposure to each phytochemical sample formulated. Stereotypical basal activity patterns of zebrafish will be assessed to determine the potential side effects of the phytochemical samples in a concentration dependent manner for each compound on two zebrafish models of stress and anxiety: 1) the Light/Dark Stress Response (5 min alternating pulses of light and dark) in small to med well plates (96-48 well plates), and 2) Thigmotaxis assays in large well plates with 50% of the swimming surface colored dark around the margins of the well in large (24-12 well plates) will be assessed for their efficacy in testing the phytochemicals.
(§3) The discovery methods of the present invention include testing the effects of up to 20 phytochemicals and 40 mixtures of the phytochemicals on behavioral stress response patterns of zebrafish larvae. Larval behavior was assessed with an automated video tracking system following acute exposure to each phytochemical sample. Stereotypical basal activity patterns of larvae were assessed to determine the concentration dependent effect of each compound. A zebrafish model of thigmotaxis in large well plates (24-12 well plates) was assessed for their efficacy in testing the phytochemicals. In the discovery method, fertilized eggs were kept on a re-circulating system in baskets until use at 120 hpf (5 days). At 120 hpf, larvae were loaded into 48 well plates in buffered fish media and acclimated to the plate in a heated light incubator for 2 hours. Larvae were acutely exposed with drug or controls at a 10× concentration and the plate was quickly transferred to a behavioral tracking system. Acute behavioral run was 90 minutes (baseline activity) in the light followed by alternating 5 minute bins (total 2 hours). […]

zebrafish larvae [2] = test: Light/Dark Stress Response (5 min alternating pulses of dark and light for 30 min); assay type: in vivo; design: key to Light/Dark Stress Response: +: statistically significant increase; −−: statistically significant decrease
Method: as §1, §2, §3

zebrafish larvae [3] = test: Thigmotaxis assay; assay type: in vivo; design: key: +: statistically significant increase; −−: statistically significant decrease
Method: as §1, §2, §3

zebrafish larvae [4] = test: Zebrafish models of stress and anxiety, overall verdict (Light/Dark Stress Response and thigmotaxis); assay type: in vivo; conditions: for Anti-Anxiety Potential?: API used singly
Method: as §1
Additionally, testing is done with mixtures of these same selected phytochemicals from P. methysticum and other plants selected by our in silico analyses. The testing results are analyzed using artificial intelligence systems to rank effectiveness in reducing the Light/Dark response and thigmotactic behavior for the
The A1 enabled drug discovery platform database search data was evaluated to select the best drug candidates from: A Piper methysticum, B. within the Piper plant family (>200 Piper spp.), or C. traditional medicines to begin testing […] (API) singles, doubles, and triples in two complementary zebrafish models of anxiety light/dark startle response testing and thigmotaxis assays.
as §2
The discovery methods of the present invention include testing the effects of up to 20 phytochemicals and 40 mixtures of the phytochemicals on behavioral stress response patterns of zebrafish larvae. Larval behavior was assessed with an automated video tracking system following acute exposure to each phytochemical sample. […]

MAO-A = conditions: cited from earlier work
MAO-B = conditions: cited from earlier work
[5] = Pharmacokinetics of piperine acting alone; assay type: in vivo

| pharmacokinetics [5] | SMILES | Baseline Exposure (zebrafish larvae [1]; High) | Baseline Exposure (zebrafish larvae [1]; Low) | Baseline Exposure (zebrafish larvae [1]; Med) | baseline Activity (90 min light) (zebrafish larvae [1]; vehicle 0.5% MeOH, listed as Dihydromysticin) | baseline Activity (90 min light) (zebrafish larvae [1]; vehicle 1% MeOH, listed as Dihydromysticin) | Light/Dark Stress Response (5 min light/dark pulses) (zebrafish larvae [2]; vehicle 0.5% MeOH) | Light/Dark Stress Response (5 min light/dark pulses) (zebrafish larvae [2]; vehicle 1% MeOH) | Thigmotaxis Model (zebrafish larvae [3]; High) | Thigmotaxis Model (zebrafish larvae [3]; Med) | Anti-Anxiety Potential? (zebrafish larvae [4]) | Therapeutic Potential (zebrafish larvae [4]; vehicle 0.5% MeOH) | Approx. Dose (cell or animal experiments), MAO-A (MAO-A) | Approx. Dose (cell or animal experiments), MAO-B (MAO-B) | baseline Activity (90 min light) (zebrafish larvae [1]; vehicle 0.5% MeOH) | baseline Activity (90 min light) (zebrafish larvae [1]; vehicle 1% MeOH) | Therapeutic Potential (zebrafish larvae [4]; vehicle 1% MeOH) | Light/Dark Stress Response (zebrafish larvae [2]; High) | effect on the baseline activity (zebrafish larvae [1]; acting alone) | Light/Dark Stress Response (zebrafish larvae [2]; Med) |
| --- | --- | --- | --- | --- | --- | --- | --- | --- | --- | --- | --- | --- | --- | --- | --- | --- | --- | --- | --- | --- |
|  | COC1=CC(=O)O[C@@H](CCc2ccc3c(c2)OCO3)C1 [(+)-dihydro methysticin] | −− | + | −− | baseline activity is close to controls; also recorded: (slight increase initially) | baseline activity levels reduced; also recorded: (evidence of sedation) | stress response is reduced | stress response is reduced, but evidence | −− | −− | Yes | Yes | MAO-A 23.2 μM, | MAO-B 0.855 μM |  |  |  |  |  |  |
|  | COC1=CC(=O)O[C@@H](CCc2ccccc2)C1 [(S)-(+)-7,8-dihydrokavain] | −− | + | −− |  |  | no reduction in stress response | stress response trending down, but high |  |  | Yes | No | MAO-A none, | MAO-B 8.23 μM | baseline activity is close to controls; also recorded: (slight increase initially) | baseline activity levels reduced; also recorded: (evidence of sedation) | No |  |  |  |
|  | COC1=CC(=O)O[C@@H](/C=C/c2ccc3c(c2)OCO3)C1 [R-(+)-methysticin] | −− | + |  |  |  | no reduction in stress response | stress response is reduced, but high |  |  | No | No | MAO-A 8.12 μM, | MAO-B 0.5 μM | baseline activity levels reduced; also recorded: (evidence of sedation) | baseline activity levels reduced; also recorded: (evidence of sedation) | No, sedative effect |  |  |  |
|  | COc1cc(/C=C/C(=O)CC(=O)/C=C/c2ccc(O)c(OC)c2)ccc1O [curcumin] | + |  | + |  |  |  | stress response reduced in highest |  |  | No |  | MAOA 9.01 μM, MAOB | 2.55 µM |  | baseline activity not like controls; also recorded: (increased at med/high; also recorded: conc., but baseline activity is concerning | No, sedative effect | −− |  |  |
| positive results | O=C(/C=C/C=C/c1ccc2c(c1)OCO2)N1CCCCC1 [piperine] | + | −− |  |  |  |  | stress response is reduced | −− |  | Yes |  |  |  |  |  | YES-top pick | −− | virtually no effect on the baseline activity | −− |
|  | COc1ccc(/C=C/c2cc(OC)cc(=O)o2)cc1 [yangonin] | + | + | + |  |  | stress response is reduced | stress response is reduced | −− | −− | Yes | Yes | MAO-A1.29 μM, | MAO-B 0.085 μM | baseline activity is close to controls; also recorded: (slight increase initially) | baseline activity is close to controls; also recorded: (slight increase initially) | Yes | −− |  |  |
